The target of one assay is T1, TRPC6 (Homo sapiens, UniProt Q9Y210).
T1 construct: expressed in transfected cells
T1 sequence (Q9Y210 1-931): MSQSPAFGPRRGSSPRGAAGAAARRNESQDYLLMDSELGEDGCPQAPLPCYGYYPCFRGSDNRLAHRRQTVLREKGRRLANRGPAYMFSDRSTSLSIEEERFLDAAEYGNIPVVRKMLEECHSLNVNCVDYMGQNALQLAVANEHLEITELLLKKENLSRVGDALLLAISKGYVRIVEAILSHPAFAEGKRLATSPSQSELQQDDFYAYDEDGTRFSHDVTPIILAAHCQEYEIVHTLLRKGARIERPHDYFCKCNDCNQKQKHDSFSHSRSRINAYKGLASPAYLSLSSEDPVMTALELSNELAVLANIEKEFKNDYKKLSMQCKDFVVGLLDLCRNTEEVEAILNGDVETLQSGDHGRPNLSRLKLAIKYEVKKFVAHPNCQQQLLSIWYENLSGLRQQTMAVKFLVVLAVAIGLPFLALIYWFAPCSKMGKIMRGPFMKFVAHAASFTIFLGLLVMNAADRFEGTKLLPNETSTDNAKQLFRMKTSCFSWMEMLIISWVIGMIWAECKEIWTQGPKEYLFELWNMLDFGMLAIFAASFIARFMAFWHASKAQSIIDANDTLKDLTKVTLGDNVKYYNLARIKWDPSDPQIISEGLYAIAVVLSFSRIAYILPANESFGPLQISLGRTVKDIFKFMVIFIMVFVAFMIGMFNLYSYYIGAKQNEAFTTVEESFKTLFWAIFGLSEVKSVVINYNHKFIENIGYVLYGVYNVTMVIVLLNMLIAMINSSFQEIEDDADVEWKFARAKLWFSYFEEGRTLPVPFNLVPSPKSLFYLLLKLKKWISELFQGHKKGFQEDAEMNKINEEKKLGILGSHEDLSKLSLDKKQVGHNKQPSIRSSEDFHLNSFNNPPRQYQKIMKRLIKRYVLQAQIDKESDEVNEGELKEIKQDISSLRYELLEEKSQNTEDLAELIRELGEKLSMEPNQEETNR
Briefly: FLIPR Ca2+ fluorescence assay in inducible Flp-In T-REx-TRPC6 HEK 293 cells. In kind it is cell-based. Conditions: mean±SEM; for Fluorescence changes (F/F0): 200 nM trypsin, t=60 sec, n=12. The text has this: (§1) To develop an assay for the identification of TRPC channel modulators, recombinant HEK 293 cell lines were produced using the Flp-In T-REx system (Invitrogen, Karsruhe, Germany) that express TRPC3 (accession # U47050) or TRPC6 (accession # AF080394) cDNAs under the control of an inducible promoter. Channel cDNAs were amplified by standard techniques and cloned into pcDNA5/FRT/TO (Invitrogen, Karlsruhe, Germany). After transfection of Flp-In T-Rex 293 cells with the channel constructs stable cell lines were selected with hygromycin. Cells were maintained according to the manufactures instructions and channel expression of was induced by addition of 1 μg/ml doxycycline for 20-30 h. Cells were plated into 96 well poly-d-lysine coated black walled clear bottom microtiter plates (BD Biosciences, Bedford, Mass.) at a density of 40000-50000 cells/well 20-30 h before experiments. […] Ca^2+ measurements were performed using a 96 well Fluorescence Imaging Plate Reader (FLIPR), (Molecular Devices Corporation, Sunnyvale, Calif.). […]
(§2) Fluorescence changes in fluo-4 loaded cells were measured using FLIPR II. […] Shown are mean fluorescence values±SEM from 9 wells each. Fluorescence values were normalized to the mean baseline fluorescence (F0).
(§3) To identify modulators of TRPC3 or TRPC6 with the assays described above induced cells were used and test compounds are added to the wells before or after application of OAG. The expected effect of inhibitors would be a reduction of the fluorescence increase. Channel activators would lead to a further increase of the OAG-evoked signal or induce an OAG-independent fluorescence increase. […]
(§4) Fluorescence changes induced by 30 μM OAG in TRPC3-and TRPC6 expressing cells were measured in the presence of the given concentrations of SKF 96365. […] Inhibition is expressed as % of control fluorescence in the absence of SKF 96365. […]

The next assay deals with T2, TRPC3 (Homo sapiens, UniProt Q13507).
T2 construct: expressed in transfected cells
T2 sequence (Q13507 74-921): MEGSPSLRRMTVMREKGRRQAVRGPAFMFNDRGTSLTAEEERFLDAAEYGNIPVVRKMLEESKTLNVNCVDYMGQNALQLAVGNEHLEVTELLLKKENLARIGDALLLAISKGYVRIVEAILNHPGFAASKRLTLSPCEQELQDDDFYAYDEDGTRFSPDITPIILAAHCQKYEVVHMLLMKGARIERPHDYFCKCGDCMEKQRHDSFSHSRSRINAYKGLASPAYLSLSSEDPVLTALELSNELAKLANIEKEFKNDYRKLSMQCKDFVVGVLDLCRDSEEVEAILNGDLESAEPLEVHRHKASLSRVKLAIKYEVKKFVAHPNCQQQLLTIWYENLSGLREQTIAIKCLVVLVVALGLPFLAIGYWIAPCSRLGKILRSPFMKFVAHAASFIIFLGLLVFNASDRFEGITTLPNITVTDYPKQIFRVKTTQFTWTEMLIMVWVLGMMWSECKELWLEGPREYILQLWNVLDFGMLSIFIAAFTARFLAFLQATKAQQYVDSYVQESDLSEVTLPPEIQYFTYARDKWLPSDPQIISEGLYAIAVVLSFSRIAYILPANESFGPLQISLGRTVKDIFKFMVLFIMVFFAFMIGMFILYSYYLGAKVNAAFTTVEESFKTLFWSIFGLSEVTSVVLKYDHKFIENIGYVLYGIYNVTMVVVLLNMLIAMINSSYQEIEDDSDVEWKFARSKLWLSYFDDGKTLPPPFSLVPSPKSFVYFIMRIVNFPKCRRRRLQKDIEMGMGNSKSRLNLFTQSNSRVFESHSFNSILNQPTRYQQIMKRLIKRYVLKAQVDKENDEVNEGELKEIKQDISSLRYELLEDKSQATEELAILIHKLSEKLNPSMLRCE
As to the kind of experiment: FLIPR Ca2+ fluorescence assay in inducible Flp-In T-REx-TRPC3 HEK 293 cells. The note with it: mean±SEM; for Fluorescence changes (F/F0): 200 nM trypsin, t=60 sec, n=9. It counts as cell-based.
From the text: as §1, §2, §3, §4

Where a name gives a salt, the structure may show the parent alone.

Regarding `COc1ccc(CCCOC(Cn2ccnc2)c2ccc(OC)cc2)cc1` (stereo not drawn) [SKF 96365, 1-(β-[3-(4-methoxyphenyl)propoxy]-4-methoxyphenethyl)-1H-imidazole-HCl], the IC50 worked out at 5.04 ± 0.17 µM at TRPC6 (doxycycline-induced cells, 30 μM OAG, n=8, read-out: IC50, inhibition of OAG-activated fluorescence responses in TRPC6 expressing cells) and 1.8 µM at TRPC3 (doxycycline-induced cells, 30 μM OAG, n=8, read-out: IC50, inhibition of OAG-activated fluorescence responses in TRPC3 expressing cells).
On to trypsin, for which the “Fluorescence changes (F/F0)” value at TRPC6 (induced Flp-In T-REx-TRPC6 cells) is 2.26 ± 0.05 (n = 12); on TRPC6 (non-induced Flp-In T-REx-TRPC6 cells) it was 0.88 ± 0.009 (n = 12); at TRPC3 (induced Flp-In T-REx-TRPC3 cells) it was 2.71 ± 0.022 (n = 9); at TRPC3 (non-induced Flp-In T-REx-TRPC3 cells), 1.65 ± 0.034 (n = 9).

The values above are taken from patent US8193150B2, “Improving vascular function with an inactivating mutant of a TRPC channel protein” (Sanofi, priority 2005, dated 2012).
